*1 amine or outer side, *2 acyl side, *3 side chain or, on linkers, in order; H or OH if unused. Primed or numbered codes have the meaning given here. Where no end group is shown, it is not given here. Side-chain parts run from the residue outwards. [ ]: non-standard residue; d: D form. The star is where a group is joined. C20 diacid = O=C(O)CCCCCCCCCCCCCCCCCCC(=O)*; γGlu = O=C(O)[C@H](CCC(=O)[*:2])N[*:1]; Iva = CC[C@](C)(N)C(=O)O; PEG2′ = not defined here; Aib = CC(C)(N)C(=O)O
How the values were obtained:
[1] = test system: db/db diabetic mice; test: Dose determination in 8-week-old db/db diabetic mice: blood glucose and body weight; format: in vivo; details: for body weight (weight-lowering effect) / weight-lowering effect relative to compounds 3 and 8 / blood glucose (glucose-lowering effect): FIG. 3A, daily s.c.; for effect relative to polypeptide compounds 3 and 8 / overall hypoglycemic effect / blood glucose (hypoglycemic effect) / subsequent blood glucose course (long-lasting effect): FIG. 3B, every other day s.c.; for subsequent blood glucose course (long-lasting effect): from day 3 / after days 3-5
Protocol: The db/db mice diabetic model (purchased from Nanjing University-Nanjing Institute of Biomedical Research, about 8 weeks, and blood glucose and body weight were measured to ensure the smooth subsequent experiments) was obtained, and the model mice were randomly divided into 12 groups (including polypeptide compounds 3, 8, 13, 15, semaglutide and physiological saline groups), with 6 mice in each group and no difference in basal body weight and blood glucose. Each group was injected subcutaneously with compound 3 (80 and 120 μg/kg, 2 groups), compound 8 (80 and 120 μg/kg, 2 groups), compound 13 (80 and 120 μg/kg, 2 groups), compound 15 (80 and 120 μg/kg, 2 groups), semaglutide (80 and 120 μg/kg, 2 groups) and physiological saline (DN group: normal mice born in the same litter; DC group: db/db mice control group) every day or every other day.
Blood glucose and body weight of mice were measured after daily administration and 6 h fasting on alternate days.

[2] = test system: C57BL/6J mice; test: Oral glucose tolerance (OGTT), repeated glucose loads followed to 24 h after one s.c. dose; format: in vivo; details: four OGTT curves (0-22 h); 100 μg/kg subcutaneously
Protocol: Eight-week-old male C57BL/6J mice (Model Animal Research Center, Nanjing University) were randomly grouped according to similar blood glucose (assessed by blood samples obtained from the tail tip), with six mice in each group. […] The initial blood samples (fasted blood glucose levels) were obtained after about 4 h. Subsequently, an oral dose of glucose (2 g/kg) was administered and the animals were placed back in their holding cages (t=0). […] The oral dose of glucose was then repeated at 8 h of administration, 12 h of administration and […], and blood glucose changes were detected and followed until 24 hours. The data were processed using the software GraphPadPrism to make a line graph of blood glucose changes, and the area under the curve was calculated to obtain an AUC graph, and the results are shown in FIG. 1.

[3] = test system: db/db diabetic mice; test: Treatment of 12-week-old db/db diabetic mice: blood glucose, OGTT, ITT, ALT/AST, diabetic nephropathy indices; format: in vivo; details: for weekly blood glucose (hypoglycemic effect): FIG. 4A, blood glucose at normal levels at week 1; for weekly blood glucose (hypoglycemic effect) / improving oral glucose tolerance (OGTT) / improving insulin resistance (ITT) / ALT and AST in serum (hepatoprotective function): 120 μg/kg s.c. daily; for improving oral glucose tolerance (OGTT): FIG. 4B, week 4; for improving insulin resistance (ITT): FIG. 4C, week 5; for ALT and AST in serum (hepatoprotective function): FIG. 4D; for H&E staining of kidneys: glomerular adhesion, ameliorative and therapeutic effects: FIG. 5B; for H&E staining of kidneys: glomerular adhesion, ameliorative and therapeutic effects / PAS staining of kidneys: ameliorative effects on glomerular mesangial region / collagen content (Sirius red, FN and α-SMA staining of kidneys): after 8 weeks; for H&E staining of kidneys: glomerular adhesion, ameliorative and therapeutic effects / collagen content (Sirius red, FN and α-SMA staining of kidneys): compared to semaglutide, SAR425899 and MED C18-acid groups; for PAS staining of kidneys: ameliorative effects on glomerular mesangial region: FIG. 5C; for collagen content (Sirius red, FN and α-SMA staining of kidneys): FIGS. 5D to 5F
Protocol: Normal mice born in the same litter; DC group: db/db mice control group). Blood glucose and body weight were measured on alternate days after daily administration of the medicament, and water intake and food intake were measured once a week. OGTT was measured at week 4, insulin tolerance (ITT) was measured at week 5, metabolism of mice was examined using mouse metabolic cages at weeks 6-7, and various serological and pathological indices were taken at week 8.
Type 2-diabetes mice were characterized by obesity, insulin resistance, hyperglycemia, dyslipidemia and hepatic fat vacuole-like degeneration.
After 6 weeks of medical treatment, the mice was collected for urine using metabolic cages, and the protein content in the urine was detected using relevant kits. After 7 weeks of medical treatment, the material was taken and blood was used to detect serological indicators such as blood creatinine and urea nitrogen.

[4] = test system: FN protein (fibronectin); test: Western blot of FN protein in high glucose-induced in vitro renal fibrosis cell model; format: cell-based, rat; details: 10 μM; 30 mmol/L glucose; 48 h; mesangial and renal epithelial cells
Excerpt: Hyperglycemia and increased production of glycosylation end products will cause morphological changes such as proliferation and hypertrophy of glomerular mesangial cells, increase in extracellular matrix (ECM) and mesangial expansion, which will eventually lead to the loss of its physiological function. […] Therefore, this example used high glucose to induce MCS mesangial cells and NRK renal epithelial cells to construct an in vitro renal fibrosis cell model for screening medicaments useful for the treatment of diabetic nephropathy. The renal mesangial cell strain GMC and glomerular epithelial cells mTEC used in this example were both cells kept in the applicant's laboratory (both were extracted from rat renal primary cells) and cultured in low sugar medium containing 10% fetal bovine serum. The cells were starved with serum-free culture medium for 24 h when grew to 70% confluence. The cells were divided into the following 9 groups by adjusting the glucose concentration as follows: […]

Row | Substance | body weight (weight-lowering effect) [1] | weight-lowering effect relative to compounds 3 and 8 [1] | blood glucose (glucose-lowering effect) ([1]; 80 μg/kg) | blood glucose (glucose-lowering effect) ([1]; 120 μg/kg, vs saline DC group) | effect relative to polypeptide compounds 3 and 8 [1] | overall hypoglycemic effect [1] | blood glucose (hypoglycemic effect) ([1]; 80 μg/kg) | blood glucose (hypoglycemic effect) ([1]; 120 μg/kg) | subsequent blood glucose course (long-lasting effect) ([1]; 120 μg/kg) | long-acting hypoglycemic effects compared to semaglutide [2] | weekly blood glucose (hypoglycemic effect) [3] | improving oral glucose tolerance (OGTT) [3] | improving insulin resistance (ITT) [3] | ALT and AST in serum (hepatoprotective function) [3] | H&E staining of kidneys: glomerular adhesion, ameliorative and therapeutic effects [3] | PAS staining of kidneys: ameliorative effects on glomerular mesangial region [3] | collagen content (Sirius red, FN and α-SMA staining of kidneys) [3] | FN protein expression (Western blot) [4]
1 | His-(D-Ser)-Gln-Gly-Thr-Phe-Thr-Ser-Asp-Lys(Gly-Gly-Ser-Gly-Ser-Gly-γGlu-CO(CH2)18-COOH)-Ser-Lys-Tyr-Leu-Glu-Aib-Lys-Ala-Ala-Gln-Asp-Phe-Val-Glu-Trp-Leu-Lys-Ala-Gly-Gly-Pro-Ser-Ser-Gly-Ala-Pro-Pro-Pro-Ser (H[dS]QGTFTSDKSKYLE[Aib]KAAQDFVEWLKAGGPSSGAPPPS; not fully specified (residue 10, C-terminus)) [Compound 13] | better weight-lowering effect | superior to that of compounds 3 and 8 | significant glucose-lowering effect with long-lasting effect | good glucose-lowering effect in 3-5 days | better than that of polypeptide compounds 3 and 8 | more excellent hypoglycemic effect | significant hypoglycemic effect on day 3, but the subsequent blood glucose level did not change much and tended to be stable | good hypoglycemic effect on days 3-5 | kept good hypoglycemic effect | superior and significant long-acting hypoglycemic effects | significant hypoglycemic effects | performed more excellent | performed more excellent | more excellent hepatoprotective functions | more significant | more significant | improved more significantly | inhibited FN expression more significantly
2 | His-Aib-Gln-Gly-Thr-Phe-Thr-Ser-Asp-Lys(Gly-Gly-Ser-Gly-Ser-Gly-γGlu-CO(CH2)18-COOH)-Ser-Lys-Tyr-Leu-Asp-Glu-Arg-Ala-Ala-Gln-Asp-Phe-Iva-Gln-Trp-Leu-Leu-Asp-Gly-Gly-Pro-Ser-Ser-Gly-Aib-Pro-Pro-Pro-Ser (H[Aib]QGTFTSDKSKYLDERAAQDF[Iva]QWLLDGGPSSG[Aib]PPPS; not fully specified (residue 10, C-terminus)) [Compound 15] | better weight-lowering effect | superior to that of compounds 3 and 8 | significant glucose-lowering effect with long-lasting effect | good glucose-lowering effect in 3-5 days | better than that of polypeptide compounds 3 and 8 | more excellent hypoglycemic effect | significant hypoglycemic effect on day 3, but the subsequent blood glucose level did not change much and tended to be stable | good hypoglycemic effect on days 3-5 | kept good hypoglycemic effect | superior and significant long-acting hypoglycemic effects | significant hypoglycemic effects | performed more excellent | performed more excellent | more excellent hepatoprotective functions | more significant | more significant | improved more significantly | inhibited FN expression more significantly
3 | His-(D-Ser)-Gln-Gly-Thr-Phe-Thr-Ser-Asp-Lys(PEG2-PEG2-γGlu-CO(CH2)18CO2H)-Ser-Lys-Tyr-Leu-Glu-Aib-Lys-Ala-Ala-Gln-Asp-Phe-Val-Glu-Trp-Leu-Lys-Ala-Gly-Gly-Pro-Ser-Ser-Gly-Ala-Pro-Pro-Pro-Ser-NH2 (H[dS]QGTFTSDK([PEG2′-PEG2′-γGlu-C20 diacid])SKYLE[Aib]KAAQDFVEWLKAGGPSSGAPPPS-NH2) [Compound 3] | better weight-lowering effect |  | significant glucose-lowering effect | good glucose-lowering effect in 3-5 days |  | more excellent hypoglycemic effect | first decrease and then increase, and the overall hypoglycemic effect was significant | good hypoglycemic effect on days 3-5 | the blood glucose did not change much | superior and significant long-acting hypoglycemic effects | significant hypoglycemic effects | performed more excellent | performed more excellent | more excellent hepatoprotective functions | more significant | more significant | improved more significantly | inhibited FN expression more significantly
